System: VCAM-1
Test: VCAM-1 assay: immunoassay of cell-surface VCAM-1 expression on TNF-stimulated human aortic endothelial cells (HAEC)
Assay type: cell-based
Conditions: TNF 250 U/mL, overnight (18 hours)
Excerpt: CELL CULTURE: Human aortic endothelial cells (CellSystem) Media: 50:50 mix of CS 3.0 (CellSystem) and MCDB-107 (Sigma) 10% fetal bovine serum (FBS) (Hyclone) Tissue culture plates (24 well) (Costar) TNF: recombinant Tumor necrosis factor-alpha (Genzyme)
IMMUNOASSAYS: 10% buffered Formalin (Baxter) Dulbecco's modified eagle medium (DMEM), Phosphate buffered saline (PBS) (Gibco) Bovine serum albumin (BSA) (Sigma) Anti-ICAM-1 antibody (R&D System, BBA#3) Sheep anti-mouse IgG (Cappel, #55558) Horseradish peroxidase (HRP)-KIT (Bio-Rad, #172-1064) Anti-VCAM-1 antibody (R&D System, BBA#6) Goat anti-mouse IgG+IgM, F(ab)2 fragments, biotin conjugated (Jackson Immuno Research Lab, #115-066-068) 125-I-Streptavidin (Amersham, #IM.236)
Human aortic endothelial cells (HAEC) were seeded at 100,000 cells/mL/well in 24 well cluster plates and placed in a 5% CO2 to […] humidified incubator at 37° C. […]
The cells were incubated with anti-VCAM-1 monoclonal antibody (1.25 μg/mL) for 2 hours at 37° C. […] Cells were washed again (4 times) and digested overnight with the addition of 500 μL of 1N NaOH and radioactivity contained in the digests counted. Cell-surface VCAM-1 expression is shown as radioactivity bound to the cell surface under various conditions.

Work on `Cc1c(C)c2c(c(C)c1O)CCC(C)(COc1ccc(NC(=S)NC(c3ccccc3)c3ccccc3)cc1)O2` (stereo not shown) [Example 1, 1-Benzhydryl-3-[4-(6-hydroxy-2,5,7,8-tetramethyl-Chroman-2-ylmethoxy)-phenyl]-thiourea] yielded an IC50 of 23.1 µM.

Reference: US5747528A, “Chroman derivatives as anti-oxidants” (Warner-Lambert Company, priority 1997, dated 1998)
